Source: publication PMC11818082, “2-{N-[ω-(1-Benzylpiperidin-4-yl)alkyl]amino}-6-[(prop-2-yn-1-yl)amino]pyridine-3,5-dicarbonitriles Showing High Affinity for σ1/2 Receptors” (International Journal of Molecular Sciences, 2025)
Where “and” joins values, the source holds several entries; their conditions need not be identical. Equal entries are not always repeated. Where two headings read alike, the source gives them in different places.

Tests used:
human MAO B = test system: human MAO B; parameters: method as in earlier work; details: cited from earlier work
rat σ2R = biological target: T1, rat σ2R (Rattus norvegicus, UniProt Q5U3Y7); assay: σ2R competitive radioligand binding assay (rat liver membranes)
T1 construct: The thawed membrane preparation of rat liver (about 100 µg of protein) was incubated; from tissue; host or cells: rat liver membranes
T1 sequence (Q5U3Y7 1-176): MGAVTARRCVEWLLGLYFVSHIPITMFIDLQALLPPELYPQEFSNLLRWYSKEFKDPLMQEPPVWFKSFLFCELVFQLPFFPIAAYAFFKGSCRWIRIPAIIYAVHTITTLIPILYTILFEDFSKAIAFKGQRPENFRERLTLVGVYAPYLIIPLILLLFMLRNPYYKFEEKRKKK
Experimental: Two rat livers were cut into small pieces and homogenized using a potter [Elvehjem Potter (B. Braun Biotech International, Melsungen, Germany); 500–800 rpm, 10 up-and-down strokes] in 6 volumes of cold 0.32 M sucrose. The suspension was centrifuged at 1200× g for 10 min at 4 °C. The supernatant was separated and centrifuged at 31,000× g for 20 min at 4 °C. The pellet was resuspended in 5–6 volumes of buffer (50 mM TRIS, pH 8.0) and incubated at rt for 30 min. After the incubation, the suspension was centrifuged again at 31,000× g for 20 min at 4 °C. The final pellet was resuspended in 5–6 volumes of buffer and stored at −80 °C in 1.5 mL portions containing about 2 mg of protein/mL.
The stock solution of the respective test compound (10 mM in DMSO) was diluted with the assay buffer to obtain the required test solutions for the assay. All binding experiments were carried out in duplicates in 96-well multiplates. The concentrations given are the final concentrations in the assay. The assays were performed with the radioligand [^3H]-DTG (specific activity 50 Ci/mmol; ARC, St. Louis, MO, USA). The thawed membrane preparation of rat liver (about 100 µg of protein) was incubated with various concentrations of the test compound, 3 nM [^3H]-DTG, and a buffer containing (+)-pentazocine (500 nM (+)-pentazocine in 50 mM TRIS, pH 8.0) at rt. The non-specific binding was determined with 10 μM non-labeled DTG. The Kd value of [^3H]-DTG is 17.9 nM [43].
Generally, the assays were performed by adding 50 µL of the respective assay buffer and 50 µL of the test compound solution in various concentrations (10^−5, 10^−6, 10^−7, 10^−8, 10^−9, and 10^−10 mol/L), 50 µL of the corresponding radioligand solution, and 50 µL of the respective receptor preparation into each well of the multiplate (total volume 200 µL). The receptor preparation was added last. During the incubation, the multiplates were shaken at a speed of 500−600 rpm at rt. The assays were terminated after 120 min by rapid filtration using the harvester (MicroBeta FilterMate 96; PerkinElmer LAS, Rodgau, Germany) equipped with filtermats presoaked in 0.5% aqueous polyethylenimine solution for 2 h at rt before use. During the filtration, each well was washed five times with 300 µL of water. Subsequently, the filtermats were dried at 95 °C. The solid scintillator (Meltilex; PerkinElmer LAS, Rodgau, Germany) was melted on the dried filtermats at a temperature of 95 °C for 5 min. After solidifying the scintillator at rt, the trapped radioactivity in the filtermats was measured with the scintillation analyzer (MicroBeta Trilux; PerkinElmer LAS, Rodgau, Germany). Each position on the filtermat corresponds to one well of the multiplate and was measured for 5 min with the [^3H]-counting protocol. The overall counting efficiency was 20%. The IC50 values were calculated with the program GraphPad Prism® 3.0 (GraphPad Software, San Diego, CA, USA) by nonlinear regression analysis. Subsequently, the IC50 values were transformed into Ki values using the equation of Cheng and Prusoff. The Ki values are given as the mean value ± SEM from three independent experiments.

eqBuChE = details: cited from earlier work; for IC50: read-out: IC50 BuChE
human MAO A = details: cited from earlier work
human σ1R = biological target: T2, human σ1R (Homo sapiens, UniProt Q99720); assay: hσ1R competitive radioligand binding assay; details: for Selectivity Index of Rat σ2R/Human σ1R: Ki rat σ2R/Ki hσ1R
T2 construct: expressed in transfected cells; host or cells: HEK293 (provided by Olivier Soriani, Université de Nice Sophia-Antipolis)
T2 sequence (Q99720 whole entry): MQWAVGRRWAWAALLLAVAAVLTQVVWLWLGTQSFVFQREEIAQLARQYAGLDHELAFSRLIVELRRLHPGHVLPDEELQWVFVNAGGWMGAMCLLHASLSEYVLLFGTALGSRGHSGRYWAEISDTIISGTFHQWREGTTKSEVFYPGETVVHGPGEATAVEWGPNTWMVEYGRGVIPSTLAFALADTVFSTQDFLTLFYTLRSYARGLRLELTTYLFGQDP
Experimental: The hσ1R competitive binding assay was performed as previously reported. In brief, radioligand competition experiments were performed using preparations from HEK293 cells stably transfected with human σ1R cells (provided by Olivier Soriani, Université de Nice Sophia-Antipolis, Nice, France). The binding of the σ1R specific radioligand (+)-[^3H]pentazocine (1.051 TBq/mmol; PerkinElmer LAS GmbH, Rodgay, Germany) was measured at equilibrium in the presence of the test compounds at different concentrations (10 mM stock solutions in DMSO; final concentrations 10^−5–10^−11 M, 0.1 % DMSO) in TRIS buffer at pH 7.4 (50 mM TRIS-HCl, 120 mM NaCl, 5 mM KCl, 2 mM CaCl2, 1 mM MgCl2). Total binding was measured without the addition of a competitor, and non-specific binding was measured with 10 µM haloperidol as the competitor. The vials were incubated at room temperature (rt) (~21 °C) at 300 rpm. The incubation was terminated after 60 min by vacuum filtration using Whatman® GF/B glass-fiber filtermats (#FPD-100, Brandel Inc., Gaithersburg, MD, USA), soaked with freshly prepared 0.3% polyethyleneimine, using a 48-well harvester (Brandel Inc., Gaithersburg, MD, USA). Filters were washed four times with cold buffer (50 mM TRIS-HCl, pH 7.4 at 4 °C) and placed in scintillation vials. In total, 3 mL of a liquid scintillation cocktail (Ultima Gold TM; PerkinElmer, Waltham, MA, USA) was filled in each vial, and the vials were shaken at rt at 375 rpm for 120 min. Filter-bound radioactivity was measured in a Hidex 600 SL liquid scintillation counter (Hidex, Turku, Finnland). By performing nonlinear regression analysis of the binding curves (GraphPad Prism 3.0, GraphPad Software, Inc., La Jolla, CA, USA), the IC50 values were obtained, and the equilibrium inhibition constants Ki were calculated according to the Cheng–Prusoff equation [36], using the in-house determined equilibrium dissociation constant KD of 33 nM (+)-[^3H]pentazocine. Each test compound was measured in 2–3 independent experiments, each performed in triplicate.

EeAChE = details: cited from earlier work
gpσ1R = gpσ1R (Cavia porcellus, UniProt Q60492); assay: gpσ1R affinity; type: binding
Chain of gpσ1R (Q60492 whole entry): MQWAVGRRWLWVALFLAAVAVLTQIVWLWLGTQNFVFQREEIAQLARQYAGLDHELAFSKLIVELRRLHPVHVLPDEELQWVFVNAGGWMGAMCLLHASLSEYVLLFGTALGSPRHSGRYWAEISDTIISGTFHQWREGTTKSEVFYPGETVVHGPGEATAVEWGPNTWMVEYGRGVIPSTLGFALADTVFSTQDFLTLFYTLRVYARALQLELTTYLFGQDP

[1] = rat liver membrane preparations, radioligand [3H]ditolylguanidine, (+)-pentazocine to mask σ1R, mean ± SEM, read-out: Ki Rat σ2R
[2] = membrane preparations of HEK-293 cells stably transfected with hσ1R, radioligand (+)-[3H]pentazocine, two experiments: mean (individual values), three or more: mean ± SD, read-out: Ki Human σ1R

SMILES | IC50 MAO B (human MAO B) | Ki (rat σ2R) [nM] | IC50 BuChE (eqBuChE; eqBuChE) | IC50 MAO A (human MAO A) | Ki (human σ1R) | Selectivity Index of Rat σ2R/Human σ1R (human σ1R) | IC50 (EeAChE) [nM] | IC50 (eqBuChE; eqBuChE) [nM] | Ki (rat σ2R; [1]) [nM] | Ki (human σ1R; [2]) | Ki (gpσ1R) [nM] | IC50 (eqBuChE; as given in the text) [nM] | fold higher affinity for hσ1R than the standards NE-100 and PB2 (human σ1R; compared with the standards) [fold] | IC50 (human MAO A) [nM] | fold more affine for rat σ2R than for hσ1R (rat σ2R; Ki hσ1R vs Ki rat σ2R) [fold]
C#CCNc1nc(NC2CCN(Cc3ccccc3)CC2)c(C#N)cc1C#N [Compound 1] | n.i. | 173 | n.i. | n.i. | 29.2 nM | 5.9 | 530 ± 70 | – | – | – | – | – | – | – | –
C#CCNc1nc(NCCC2CCN(Cc3ccccc3)CC2)c(C#N)cc1C#N [Compound 2] | n.i. | 42 ± 8 | n.i. | n.i. | 7.57 ± 0.59 nM | 5.6 | 16 ± 2 | – | – | – | – | – | – | – | –
C#CCNc1nc(NCCCC2CCN(Cc3ccccc3)CC2)c(C#N)cc1C#N [Compound 3] | n.i. | 37 ± 5 | – | n.i. | ~3 nM and 2.97 nM | 13 | 4.7 ± 0.5 | 2030 ± 370 | – | – | – | – | – | – | –
C#CCNc1nc(NCCCCC2CCN(Cc3ccccc3)CC2)c(C#N)cc1C#N [Compound 4] | n.i. | – | – | n.i. | – | 41 | 1.3 ± 0.3 | 530 ± 60 | 163 ± 50 | 3.97 ± 0.66 nM | – | – | – | – | –
C#CCN(C)c1nc(NCCC2CCN(Cc3ccccc3)CC2)c(C#N)cc1C#N [Compound 5, 2-{[2-(1-benzylpiperidin-4-yl)ethyl]amino}-6-[methyl(prop-2-yn-1-yl)amino]pyridine-3,5-dicarbonitrile] | n.i. | 389 | – | n.i. | 1.45 ± 0.43 nM | 270 | 13 | – | – | – | 2.9 | 3100 | ~1.3 | – | –
C#CCN(C)c1nc(NCCCC2CCN(Cc3ccccc3)CC2)c(C#N)cc1C#N [Compound 6] | n.i. | 129 ± 26 | – | – | ~3 nM and 3.05 nM | 42 | 6.2 ± 1.4 | 1120 ± 160 | – | – | – | – | – | 6110 ± 1400 | –
C#CCN(C)c1nc(NCCCCC2CCN(Cc3ccccc3)CC2)c(C#N)cc1C#N [Compound 7] | n.i. | – | – | – | – | – | 1.1 ± 0.3 | 600 ± 80 | 288 | ~3 nM and 3.09 nM | – | – | – | – | –
C#CCNc1nc(NC2CCN(Cc3ccccc3)CC2)c(C#N)c(-c2ccccc2)c1C#N [Compound 8] | n.i. | 141 | n.i. | – | 27.3 nM | 5.2 | 4000 ± 100 | – | – | – | – | – | – | 25 ± 1 | –
C#CCNc1nc(NCCCC2CCN(Cc3ccccc3)CC2)c(C#N)c(-c2ccccc2)c1C#N [Compound 9] | n.i. | 104 ± 22 | n.i. | n.i. | 7.45 ± 4.32 nM | 14 | 19 ± 5 | – | – | – | – | – | – | – | –
C#CCNc1nc(NCCCCC2CCN(Cc3ccccc3)CC2)c(C#N)c(-c2ccccc2)c1C#N [Compound 10] | n.i. | – | – | n.i. | – | 2.5 | 1.7 ± 0.3 | 840 ± 100 | 39 | 15.4 nM | – | – | – | – | –
C#CCN(C)c1nc(NCC2CCN(Cc3ccccc3)CC2)c(C#N)c(-c2ccccc2)c1C#N [Compound 11, 2-{[(1-benzylpiperidin-4-yl)methyl]amino}-6-[methyl(prop-2-yn-1-yl)amino]-4-phenylpyridine-3,5-dicarbonitrile] | n.i. | 55 | – | n.i. | 119 nM | 0.46 | 270 ± 52 | 5000 ± 700 | – | – | – | – | – | – | 2
C#CCN(C)c1nc(NCCCC2CCN(Cc3ccccc3)CC2)c(C#N)c(-c2ccccc2)c1C#N [Compound 12] | n.i. | 393 | – | n.i. | 10.9 ± 1.9 nM | 36 | 14 ± 1 | 230 ± 30 | – | – | – | – | – | – | –
